From ChEMBL document CHEMBL1157539, “Thousands of chemical starting points for antimalarial lead identification” (Nature, 2010)

Test system: Plasmodium falciparum
Experiment: GSK_TCMDC: Inhibition of Plasmodium falciparum 3D7 in whole erythrocytes, using parasite LDH activity as an index of growth.
Format: functional, organism-based
Conditions: not given

| SMILES | XC50 [nM] |
| --- | --- |
| NC(=O)c1ccc2[nH]cc(C3CCN(CC4CCC(NC(=O)/C=C/c5ccc(Cl)c(Cl)c5)CC4)CC3)c2c1 (stereo unspecified) | 867 |
| Cc1ccc(/C=C/C(=O)NC2CCC(CN3CCC(c4c[nH]c5ccccc45)CC3)CC2)cc1C (stereo unspecified) | 821 |

Same assay, conditions: Plasmodium falciparum, 3D7

| SMILES | XC50 [nM] |
| --- | --- |
| Cc1cc(N[C@@H](Cc2ccccc2)C(=O)NCCc2ccccc2)nc(NCCc2cccs2)n1 | 713 |
| O=S(=O)(c1cccc(F)c1)c1ccc(Nc2ncnc3cc(Br)sc23)cc1Cl | 1030 |
| CC(C)Oc1ccc2ccccc2c1CNCCCCCCNCc1c(OC(C)C)ccc2ccccc12 | 612 |
| Cc1cccc2nc(-c3ccc(-c4ccc(CNCC5CCCO5)cc4)s3)[nH]c12 (stereo unspecified) | 739 |
| N=C(N)c1cccc(-c2cc(-c3cccc(C(=N)N)c3)on2)c1 | 86 |
| O=C(N[C@H]1CCN(Cc2ccc(OCCCN3CCCCC3)cc2)C1)c1ccc(Oc2ccccc2)cc1 | 784 |
| Cc1cc(C(=O)CN2C(=O)NC(C)(c3cccc4ccccc34)C2=O)c(C)n1Cc1ccco1 (stereo unspecified) | 626 |
| O=C(N[C@@H](CC1CCCCC1)C(=O)NCCN1CCCC1)c1ccc(O)c(-c2ccc(Cl)c(Cl)c2)c1 | 312 |
| CC(CN(C)C)C(=O)Nc1cccc(-c2ccc(-c3nc4ccccc4[nH]3)s2)c1 (stereo unspecified) | 743 |
| NC(=O)c1ccc2[nH]cc(C3CCN(CC4CCC(NC(=O)/C=C/c5ccc(Cl)c(Cl)c5)CC4)CC3)c2c1 (stereo unspecified) | 761 |
| O=C(C=Cc1cccc(F)c1)NC1CCC(CCN2CCc3ccc(-c4cnccn4)cc3CC2)CC1 (stereo unspecified) | 454 |
| COc1cc2c(cc1C(F)(F)F)N(C(=O)Nc1cc(F)c(F)c(-c3cccnc3)c1)CC2 | 626 |
| O=C(Nc1ccccc1F)NC1CCN(c2ccnc(Nc3ccc(F)cc3)n2)C1 (stereo unspecified) | 854 |
| CCOc1ccc(-c2nonc2NC(=O)c2ccco2)cc1OCC | 750 |
| COc1ccc2nccc([C@@H](O)CN3CCC(NCc4nc5c([N+](=O)[O-])cccc5[nH]4)CC3)c2c1 | 705 |
| NS(=O)(=O)c1ccc(CNc2ccc3ncc(-c4ccc(OC(F)(F)F)cc4)n3n2)cc1 | 578 |
| CC(C)C[C@H](NC(=O)c1ccc(OCCN2CCOCC2)cc1)C(=O)N[C@H](/C=N/N1CCN(C)C1=O)CCc1ccccc1 | 294 |
| Cc1noc(C)c1C(=O)N1CCc2cc3nccc(N4CCN5CCC[C@H]5C4)c3cc21 | 874 |
| CCNc1cc(C(=O)N[C@@H](Cc2ccccc2)[C@H](O)CNCc2cc(C#N)ccc2OC)cc(N2CCCC2=O)c1 | 1230 |
| CCCCN(CCCC)/C(=N/C(=N)NCc1ccc(Cl)c(Cl)c1)NCCCCCCN/C(=N\C(=N)NCc1ccc(Cl)c(Cl)c1)N(CCCC)CCCC | 399 |
| O=C(Nc1cccc(CN2CCCN(Cc3cccc(Cl)c3)CC2)c1)c1ccc(Cl)c(Cl)c1 | 992 |
| O=C(Nc1ccc(OC2CCN(Cc3ccc(F)cc3)C2)c(Cl)c1)c1ccco1 (stereo unspecified) | 195 |
| CC(=NNC(S)=NC(C)(C)C)c1ccccn1 | 158 |
| NC1CCN(Cc2ccc(-c3cccc(-c4nc5cc(F)ccc5[nH]4)c3)cc2)C1 (stereo unspecified) | 759 |

| SMILES | XC50 [nM] |
| --- | --- |
| Cc1ccc(/C=C/C(=O)NC2CCC(CN3CCC(c4c[nH]c5ccccc45)CC3)CC2)cc1C (stereo unspecified) | 832 |
| CC(=O)N(C)c1cccc(C(=O)Nc2cccc(-c3ccc(-c4nc5cc(C(F)(F)F)ccc5[nH]4)cc3)c2)c1 | 1000 |
| O=C(Nc1cccc(-c2ccc(CN3CCC(O)CC3)cc2)c1)c1cccc(Cl)c1 | 764 |
| Cc1cc(O)c2c(c1)OC(C)(C)C=C2C1=CCN(Cc2ccccc2)CC1 | 791 |
| CCC(C)NS(=O)(=O)c1ccc2nc(Nc3ccc(C)c(Cl)c3)n(C3CCCCC3)c2c1 (stereo unspecified) | 511 |
| Cc1nc(C)c(-c2ccc(Cl)cc2Cl)c(O)c1Br | 1010 |
| COc1cccc(C(=O)NCCOc2ccccc2)c1Oc1ccccc1 | 918 |
| CC[C@H]1CN2CC[C@H]1C[C@H]2[C@H](O)c1cc(-c2ccc(SC)cc2)nc2ccc(OC)cc12 | 64.1 |
| O=C(Nc1cccc(C(F)(F)F)c1)c1ccc(S(=O)(=O)NCC2CCCN2CC2CCCCC2)cc1 (stereo unspecified) | 751 |
| Cc1cc2nc(-c3ccc(/C=C/C(=O)NCCc4ccccc4)cc3)[nH]c2cc1C | 779 |
| Cc1cc2nc(N=C3NC4(c5ccccn5)NC(=Nc5nc6cc(C)c(C)cc6[nH]5)NC4(c4ccccn4)N3)[nH]c2cc1C (stereo unspecified) | 683 |
| CCN(CC)CCN(Cc1ccc(-c2ccc(C(F)(F)F)cc2)cc1)C(=O)Cn1c(CCc2cccc(F)c2F)nc(=O)c2ccc(C(F)(F)F)cc21 | 783 |
| Cc1c(CNCCCNc2nc3ccccc3[nH]2)[nH]c2cc(Cl)cc(Cl)c12 | 232 |
| O=C(/C=C/c1ccc([N+](=O)[O-])cc1)N1CCC(CCN2CCC(c3c[nH]c4ccccc34)CC2)CC1 | 743 |
| CC(C)COc1cc(C(=O)Nc2cnc3ccccc3c2)ccc1[N+](=O)[O-] | 776 |
| Cc1ccccc1Cn1ccc2c3c(N)nc(N)nc3ccc21 | 3.2 |
| CSc1nnc2n(Cc3ccccc3)c(=O)c3c(n12)-c1ccccc1CC31CCCCC1 | 969 |
| Cc1ccc(C(=O)NC2CCN(CCNC(=O)Nc3cc(C)nc4ccccc34)CC2)cc1 | 490 |
| Cc1noc(C)c1-c1cccc(CNCc2ccc(-c3cccc(-c4nc5cc(F)ccc5[nH]4)c3)cc2)c1 | 545 |
| CC(Sc1nnc(-c2cccs2)[nH]1)C(=O)c1c[nH]c2ccccc12 (stereo unspecified) | 1800 |
| CS(=O)(=O)c1ccc2c(c1)CCN(CCC1CCC(NC(=O)c3cc4cccc(Br)c4[nH]3)CC1)CC2 (stereo unspecified) | 1040 |
| O=C(C=Cc1ccc(Cl)c(Cl)c1)NCCCCCN1CCC(CCNC(=O)C(c2ccccc2)c2ccccc2)CC1 | 1010 |
| Cn1cncc1C(=O)Nc1cccc(-c2cccc(-c3nc4cc(C(F)(F)F)ccc4[nH]3)c2)c1 | 205 |
| Cc1cc(N2CCN(CC3CCCCC3)CC2)nc(Nc2ccc(Br)cc2)n1 | 1090 |

| SMILES | XC50 [nM] |
| --- | --- |
| O=C(Nc1ccc(C(F)(F)F)cc1)c1ccc(S(=O)(=O)NC2CCCN(CC3CCCCC3)C2)cc1 (stereo unspecified) | 718 |
| COC(=O)c1cccc(NC(=O)NC2CCN(c3ccnc(Nc4ccc(F)cc4)n3)C2)c1 (stereo unspecified) | 500 |
| COc1ccc(-c2cccc(NC(=O)c3cccc(Cl)c3)c2)cc1CN1CCCN(C)CC1 | 231 |
| CC(C)COc1ccc(Cl)cc1Cc1ccc(-c2nc3ccc(C(F)(F)F)cc3[nH]2)o1 | 847 |
| COc1ccc(-c2ccc(CNCc3ccsc3)cc2)cc1S(=O)(=O)NCCN1CCCC1 | 794 |
| CCCCc1cc(O)c2c(c1)OC(C)(C)C=C2C1=CCN(Cc2ccccc2)CC1 | 247 |
| c1cc2c3c(cccc3c1)NC(CCCCCCCCC1=Nc3cccc4cccc(c34)N1)=N2 | 826 |
| COc1ccc(-c2ccc(CNC3Cc4ccccc4C3)cc2)cc1S(=O)(=O)NCCN1CCCC1 | 798 |
| COc1ccccc1C1CCN(C2CCC(NC(=O)/C=C/c3cccc(C(F)(F)F)c3)CC2)CC1 (stereo unspecified) | 806 |
| CC1CCN(Cc2c(O)ccc3c(O)c(-c4nc5ccccc5s4)c(=N)oc23)CC1 | 162 |
| COc1ccc2ncc(F)c([C@@H](O)CN3CCC(NCc4cc5c(cn4)OCCO5)CC3)c2c1 | 140 |
| O=C(Nc1cccc(-c2ccc(-c3nc4cc(C(F)(F)F)ccc4[nH]3)cc2)c1)c1csnn1 | 686 |
| Cc1ccc(O)c(-c2cc(C(=O)Nc3ccc(S(=O)(=O)N4CCCCCC4)cc3)[nH]n2)c1 | 711 |
| CC(=O)c1cccc(NC(=O)N2CCCN(CCCCCNC(=O)/C=C/c3ccc(Cl)c(Cl)c3)CC2)c1 | 1010 |
| Oc1ccc2c(c1NCC1CCCCC1)CCCC2 | 514 |
| CN1CCN(CCCCNc2c3ccccc3nc3ccccc23)CC1 | 704 |
| CC1CN(C(=O)c2sc3ccccc3c2Cl)CC(C)O1 (stereo unspecified) | 87.9 |
| Nc1nccc2ccc(OC3CCCCC3)cc12 | 602 |
| Cc1ccc(N2C(N)=NC(N)=NC2(C)C)cc1Cl | 6.82 |
| CCCc1ccc(S(=O)(=O)NC2CCN(c3ccnc(Nc4ccc(OC)cc4)n3)C2)cc1 (stereo unspecified) | 1190 |
| Nc1nc2ccc(S(=O)(=O)Nc3ccc(C(=O)N[C@@H](CCC(=O)O)C(=O)O)c(F)c3)cc2c(=O)[nH]1 | 824 |
| CN1CCN(CCCN(Cc2ccc(-c3ccc(CNCc4ccc5c(c4)OCO5)cc3)cc2)C(=O)CCC2CCCC2)CC1 | 952 |
| CCCN(CCC)C(C)CCC(C)Nc1c2ccc(Cl)cc2nc2ccc(OC)cc12 (stereo unspecified) | 70.8 |
| CCN(CCCN1CCCCC1)c1cc(C)nc(Nc2ccc(Cl)cc2C)n1 | 729 |

| SMILES | XC50 [nM] |
| --- | --- |
| O=c1[nH]ccc2nc(N[C@@H]3CCNC3)nc(Nc3cccc(S(=O)(=O)N4CCOCC4)c3)c12 | 1230 |
| Cc1ccc2ncc(Cl)c(CCN3CCC(NCc4ccc5c(n4)NC(=O)CS5)CC3)c2n1 | 1100 |
| Cc1cccc2nc(-c3cccc(-c4ccc(NC(=O)Nc5ccc(Cl)cc5)cc4)c3)[nH]c12 | 199 |
| CC(C)(C)c1ccc(CN2CCC(CNC(=O)c3cc(-c4ccccc4C(F)(F)F)cs3)C2)cc1 (stereo unspecified) | 1240 |
| Cc1cccc(/C=C/C(=O)NC2CCC(N3CCC(c4ccccc4C)CC3)CC2)c1 (stereo unspecified) | 1110 |
| Cc1ncccc1C(=O)Nc1ccc(-c2cccc(-c3nc4cccc(C)c4[nH]3)c2)cc1 | 733 |
| Cc1cc(NCCC(=O)NCc2cccc(F)c2)nc(NCCc2ccc(F)cc2)n1 | 1750 |
| c1ccc2c(CNCCCCCCNCc3c(OCC4CC4)ccc4ccccc34)c(OCC3CC3)ccc2c1 | 928 |
| CNCCNCc1cccc(-c2ccc(-c3nc4cc(C(F)(F)F)ccc4[nH]3)s2)c1 | 823 |
| Cc1cccc2nc(-c3cccc(-c4cccc(NC(=O)CC5NC(=O)c6ccccc65)c4)c3)[nH]c12 (stereo unspecified) | 1030 |
| COc1ccc(C(=O)NCc2ccc(N)nc2C)cc1Nc1ncc(-c2cccc(N(C)C)c2)cn1 | 897 |
| Cc1cc(NC(=O)NCCN2CCC(NS(=O)(=O)c3ccc(Br)cc3)C2)c2ccccc2n1 (stereo unspecified) | 602 |
| CN1CCN(c2ccnc3ccc(NC(=O)Nc4ccc(Cl)cc4)cc23)CC1 | 112 |
| COc1ccc(-c2ccc(NC(=O)c3cccc(Cl)c3)cc2)cc1CN(C)CCO | 710 |
| CC(C)N1CCN(C(CN2CCN(CCCOc3cccc(F)c3)CC2)c2ccc(F)cc2)CC1 (stereo unspecified) | 912 |
| CO/C(=C\C=C\c1cc2cc(Cl)c(Cl)cc2[nH]1)C(=O)NCCCN1CCN(c2ccc(OC)cc2)CC1 | 700 |
| CNC(=O)c1cnc(Nc2ccc(N3CCN(C)CC3)cc2)nc1Nc1cccc(OC)c1 | 752 |
| O=C(Nc1cc(C(F)(F)F)cc(C(F)(F)F)c1)c1cccc([N+](=O)[O-])c1 | 895 |
| Cc1cccc(CN2CCCC3(CCN(Cc4ccccc4O)C3)C2)c1 (stereo unspecified) | 801 |
| COc1ccccc1CNC(=O)c1ccc(N2CCN(c3ccncc3)CC2)cn1 | 1360 |
| CC(=O)Nc1csc(-c2cnc(/C=C(\C)C[C@@H]3OC[C@H](C[C@@H]4O[C@H]4[C@@H](C)[C@H](C)O)[C@@H](O)[C@H]3O)o2)c1 | 178 |
| CCOC(=O)NOC(C(=O)O)c1ccccc1 (stereo unspecified) | 189 |
